According to publication PMC9606102, “[^89Zr]Zr-PSMA-617 PET/CT in biochemical recurrence of prostate cancer: first clinical experience from a pilot study including biodistribution and dose estimates” (European Journal of Nuclear Medicine and Molecular Imaging, 2022):
“Also recorded” adds a separate entry of the source.

Assays:
Type in all cases: in vivo, human (patients)
[1] = [^89Zr]Zr-PSMA-617 PET/CT biodistribution in normal organs (SUV, tissue-to-background ratio); settings: for SUVmax: mean ± SD
Experimental: (§1) Each patient underwent PET/CT imaging scans at 4 time points: 1 h, 24 h, 48 h, and 72 h post intravenous injection (p.i.) of 111 ± 11 MBq (mean ± standard deviation, range 97–129 MBq) [^89Zr]Zr-PSMA-617. All PET/CT imaging was performed on a Biograph mCT 40 scanner (Siemens Medical Solutions, Knoxville, TN, USA) comprising whole-body PET/CT scans extending from vertex to mid-femur in 3D mode. PET acquisition time duration was 4 min per bed position on the initial day of injection and extended up to 10 min on the last day. CT data were acquired in low-dose technique using an X-ray tube voltage of […] and a modulation of the tube current (CARE Dose4D, Siemens Erlangen; maximal tube current 30 mA) followed by reconstruction with a soft tissue reconstruction kernel (B31f) to a slice thickness of 5 mm (increment 2–4 mm). PET emission data was corrected for decay, randoms, and scatter. PET image reconstruction was performed applying an iterative 3-dimensional ordered-subset expectation maximization (OSEM) algorithm (3 iterations; 24 subsets) with gaussian filtering to a transaxial resolution of 5 mm at full width half maximum (FWHM). The matrix and the pixel size were 200 × 200 and 3.0 mm, respectively. Attenuation correction was performed using the low-dose CT data.
The biodistribution of [^89Zr]Zr-PSMA-617 was quantified by analyzing the standard uptake values (SUV) SUVmax, SUVpeak and SUVmean at 1 h, 24 h, 48 h, and 72 h p.i.. Considering normal-organs, elliptical volumes of interest (VOI) were manually drawn enclosing regions of relatively homogenous uptake. Activity estimation was performed within the VOI applying a 40% or, in case of faintly accumulating organs, a 20% threshold using the SyngoVia software (Enterprise VB 60, Siemens, Erlangen, Germany). The following organs were included in this evaluation: the brain, salivary, and lacrimal glands, nasal mucosa, lung, liver, spleen, small and large intestine, and the kidneys. With regard to the large intestine, SUV was determined at the descending colon. Blood pool and background were evaluated in the descending aorta and the gluteal muscle, respectively. Tissue-to-background ratios (TiBR) were calculated by dividing the SUVmax of the organs by the SUVmean of the background (gluteal muscle).

prostate cancer lesions = assay: [^89Zr]Zr-PSMA-617 PET/CT tumor lesion detection and uptake in biochemical recurrence
Experimental: Three patients had undetermined findings on [^68Ga]Ga-PSMA-11 PET/CT with no definite assignment to pathological or physiological uptake, e.g., faintly accumulating or unusually located tracer uptake. The time interval between both, [^89Zr]Zr-PSMA-617 and [^68Ga]Ga-PSMA-11 PET/CT, was 31 ± 18 days (range 5–49 days), with no treatment performed in between. Prostate-specific antigen (PSA) serum level at time of imaging ranged from 0.43 to 1.92 ng/ml. All patients were initially treated with radical prostatectomy (RP). Initial Gleason score ranged from 7a to 9. Four patients underwent salvage treatments such as androgen-deprivation therapy (ADT), lymphadenectomy (LA) or radiation therapy (RT). Detailed patient characteristics including age, Gleason score, primary therapy, salvage therapies, time from initial diagnosis (ID) of prostate cancer, PSA and PSA doubling time (DT) are presented in Table 1. [^89Zr]Zr-PSMA-617 PET/CT imaging was performed on a compassionate use basis under the German Pharmaceutical Act §13 (2b). The medical indication for the examination and the labeling of the tracer were under the direct responsibility of the applying physician. Patients gave their written consent after being thoroughly informed about the general risks of both radiation exposure and application of a novel PET tracer including possible adverse effects of, e.g., therapeutic PSMA tracers. Furthermore, all patients agreed to the publication of the resulting data in accordance with the Declaration of Helsinki.
as §1
Three physicians with long-time experience in PSMA-targeted PET/CT (S.E., F.K., and F.R.) visually identified suspicious lesions taking into account all four imaging time points (1 h, 24 h, 48 h, and 72 h p.i.).

[2] = Adverse event recording after [^89Zr]Zr-PSMA-617 PET/CT; settings: 7 patients, 111 ± 11 MBq i.v., during examination and 4 weeks follow-up
Experimental: Any adverse event was recorded during and after examination. Vital parameters as heart rate, blood pressure, body temperature, and oxygen saturation were closely monitored. Within a time interval of 4 weeks after [^89Zr]Zr-PSMA-617 PET/CT, patients were additionally interviewed about potential side effects.

[3] = of the 11 lesions not visible at 1 h p.i.

O=C([O-])CN1CCN(CC(=O)[O-])CCN(CC(=O)NCC2CCC(C(=O)NC(Cc3ccc4ccccc4c3)C(=O)NCCCCC(NC(=O)NC(CCC(=O)O)C(=O)O)C(=O)O)CC2)CCN(CC(=O)[O-])CC1.[89Zr+4] (stereo not drawn) [[^89Zr]Zr-PSMA-617]
SUVmax ([1]; colon, 1 h p.i.): 3.50 ± 2.21 | SUVmax ([1]; colon, 72 h p.i.): 13.57 ± 5.00 | SUVmax ([1]; kidneys, 1 h p.i.): 21.15 ± 12.31 | SUVmax ([1]; kidneys, 72 h p.i.): 7.43 ± 1.56 | Tissue-to-background ratio (TiBR) ([1]; salivary glands, kidneys, and colon at 72 h p.i., SUVmax organ / SUVmean gluteal muscle): ≥ 50 | SUVmax ([1]; submandibular gland, 24 h p.i.): 17.30 ± 4.69 | SUVmax ([1]; submandibular gland, 72 h p.i.): 6.29 ± 1.61 | Patients whose undetermined [^68Ga]Ga-PSMA-11 findings were confirmed (prostate cancer lesions; 3 patients with undetermined findings in [^68Ga]Ga-PSMA-11 PET/CT): 2 of 3 | Detectability of tumor lesions at late time points (prostate cancer lesions; 48 h p.i. and 72 h p.i.): All tumor lesions were detectable | Findings on [^89Zr]Zr-PSMA-617 PET/CT (prostate cancer lesions; Pt. no 1, PSA 1.92 ng/ml): Local recurrence | Findings on [^89Zr]Zr-PSMA-617 PET/CT (prostate cancer lesions; Pt. no 2, PSA 1.75 ng/ml): 3 × LNM (no right iliac LNM) | Findings on [^89Zr]Zr-PSMA-617 PET/CT (prostate cancer lesions; Pt. no 3, PSA 0.66 ng/ml): No suspicious findings | Findings on [^89Zr]Zr-PSMA-617 PET/CT (prostate cancer lesions; Pt. no 4, PSA 1.77 ng/ml): Peritoneal metastasis + 4 × LNM | Findings on [^89Zr]Zr-PSMA-617 PET/CT (prostate cancer lesions; Pt. no 5, PSA 0.63 ng/ml): 1 × LNM | Findings on [^89Zr]Zr-PSMA-617 PET/CT (prostate cancer lesions; Pt. no 6, PSA 0.43 ng/ml): Local recurrence (in seminal vesicle bed) | Findings on [^89Zr]Zr-PSMA-617 PET/CT (prostate cancer lesions; Pt. no 7, PSA 0.68 ng/ml): Local recurrence + 2 × LNM | Total number of lesions suggestive for prostate cancer (prostate cancer lesions; all 7 patients, range 1–5 per patient): 14 lesions | Tumor lesions identified at 1 h p.i. (also visible in [^68Ga]Ga-PSMA-11 PET/CT) (prostate cancer lesions; in 3 patients): Three | Patients with at least one prostate cancer lesion detected (prostate cancer lesions; of 7 patients with negative or undetermined [^68Ga]Ga-PSMA-11 PET/CT): 6 patients | Peritoneal metastases among identified lesions (prostate cancer lesions; of n = 14 lesions): 1 lesions | Tumor lesions not visible at 1 h p.i. but delineated at later time points (prostate cancer lesions; of n = 14 lesions): 11 lesions | Local recurrences among identified lesions (prostate cancer lesions; of n = 14 lesions, in 3 patients): 3 lesions | Lymph node metastases among identified lesions (prostate cancer lesions; of n = 14 lesions, in 4 patients): 10 lesions | Tumor lesions first visible at 24 h p.i. (prostate cancer lesions; [3]): 9 lesions | Tumor lesions first visible at 48 h p.i. (prostate cancer lesions; [3]): 2 lesions | SUVmax of tumor lesion (prostate cancer lesions; patient no. 1, focal uptake in the prostate bed (local recurrence), 48 h p.i.): 3.68 | SUVmax of tumor lesion (prostate cancer lesions; patient no. 4, peritoneal lesion (peritoneal metastasis), 48 h p.i.): 2.87 | SUVmax of tumor lesion (prostate cancer lesions; patient no. 6, local recurrence in left seminal vesicle bed, 1 h p.i.): 7.04 | SUVmax of tumor lesion (prostate cancer lesions; patient no. 6, local recurrence in left seminal vesicle bed, 24 h p.i.): 21.27 | SUVmax of tumor lesion (prostate cancer lesions; patient no. 6, local recurrence in left seminal vesicle bed, 48 h p.i.): 21.09 | SUVmax of tumor lesion (prostate cancer lesions; patient no. 6, local recurrence in left seminal vesicle bed, 72 h p.i.): 19.19 | SUVmax of tumor lesion (prostate cancer lesions; patient no. 7, pelvic lymph node metastasis, 48 h p.i.): 8.06 | Side effects / adverse events [2]: not associated with any side effects; also recorded: no other side effects were observed
